According to patent publication US7265152B2 (ViroPharma Incorporated, priority 2002, dated 2007):
Like-named read-outs stand apart in the source and are kept apart here.

Columns and labels:
[1] = test system: HCV replicon (BB7 sequence) in Huh-7-Clone A cells; test: HCV replicon assay: ELISA of NS5A protein in replicon-containing cells (Inhibition of Viral RNA Replication); type: cell-based
From the text: Antiviral activity of representative compounds of the invention was first evaluated in a human liver-derived cell line (Huh-7-Clone A) containing the HCV replicon (BB7 sequence) (See Lohmann et al. Science. 1999, 285:110-3; Blight K J et al., Science. 2000, 290:1972-4; Pietschmann, T. et al., J. Virol. 2001, 73:1252-1264; and Lohmann, V. et al., J. Virol. 2001, 75:1437-1449). The HCV replicon is a subgenomic viral RNA that expresses the HCV proteins required for its own replication. These proteins include non-structural proteins NS3, NS4A, NS4B, NS5A and NS5B. The replicon also contains a foreign gene encoding a drug-selectable marker (neomycin phosphotransferase) to allow for G418 (neomycin) selection of cells that contain the replicon.
An ELISA (enzyme-linked immunosorbant assay) was used to determine the effect of compounds within the scope of the invention on the amount of HCV NS5A protein produced after a 72-hour incubation of the replicon-containing cells in the presence of varying concentrations of compound. COSTAR® 96-well cell culture plates were used but other known cell culture plates may be used. After incubation, media is removed from wells and the cells are fixed to the assay plate using 0.05% glutaraldehyde. The glutaraldehyde is then washed off using phosphate-buffered saline (PBS) following a 1 hour incubation and cells are blocked for non-specific antibody binding using for example SUPERBLOCK® reagent (blocking buffer) in PBS. The blocking agent is rinsed from the cells with PBS after 1 hour at 37° C. and primary monoclonal antibody is added to each well containing compound. Primary antibody is incubated for 1 hour at 37° C. and rinsed 3 times with PBS containing 0.02% TWEEN-20™ before addition of Horseradish Peroxidase (HRP) conjugated secondary antibody. HRP is incubated for 1 hour at 37° C. and rinsed several times, first with PBS/TWEEN-20™ followed by PBS alone. To quantify peroxidase activity, 3,3′,5, 5′-tetramethylbenzidine (TMB) substrate is added to the plate and after 30 minutes, the plates are read in an ELISA plate reader at an OD of 650 nm. Compound dose response was measured in an 8-point dose curve diluted serially to determine the inhibitory concentration at 50% (EC50 value). […] Ranges of 50% effective concentrations (EC50s) for representative compounds within the scope of this invention are listed in Table 1. Preferred compounds have 50% effective concentrations at about 30 μM or less, more preferred compounds have 50% effective concentrations at about 5 μM or less, and most preferred compounds have 50% effective concentrations at about 0.5 μM or less.

HCV NS5B = molecular target: T1, HCV NS5B (Hepatitis C virus genotype 1b, UniProt Q9WMX2); test: Inhibition of viral RNA-dependent RNA polymerase (RdRp), in vitro biochemical assay; set-up: species or system HCV genotype 1b virus (BB7); conditions: read-out: HCV pol-BB7 IC50
T1 construct: fusion protein, of which the carboxyl terminal 21 amino acids were removed to enhance its solubility; His tag (GSHHHHHH); made in house; host or cells: E. coli
From the text: The HCV NS5B-directed RdRp activity was established and characterized in a standard in vitro biochemical assay using a purified HCV NS5B protein derived from the consensus sequence of a patient infected with HCV genotype 1b virus (BB7). (See Blight K J et al., Science. 2000, 290:1972-4). The NS5B consensus sequence was cloned and expressed in E. coli as a histidine tagged (GSHHHHHH) fusion protein, of which the carboxyl terminal 21 amino acids were removed to enhance its solubility.
In addition to evaluating their activity in the replicon assay, representative compounds within the scope of the present invention, as shown in examples 1-453 of Table 1, were also evaluated for antiviral activity using this assay. A measure of the inhibitory activity of compounds of the invention may be expressed as IC50 values. IC50 values represent the concentration of the compound at which 50% of the RdRp activity is inhibited. […] These low concentrations of test compounds required to achieve 50% inhibition of the RdRp activity indicate that the compounds of the invention are effective at inhibiting RNA synthesis by viral RdRp enzymes.

[2] = ranges of EC50 in HCV replicon assay, read-out: Replicon
[3] = HCV replicon assay, ranges of EC50, read-out: Replicon
[4] = HCV NS5B RdRp, BB7, activity class
[5] = HCV replicon assay, ranges of 50% effective concentration (EC50), read-out: Replicon
[6] = HCV NS5B polymerase, BB7 (genotype 1b), values given as range classes A-D
[7] = HCV NS5B RdRp, BB7, class symbols A-D
[8] = purified His-tagged NS5B (BB7), carboxyl terminal 21 amino acids removed
[9] = Hepatitis C virus, Huh-7-Clone A, NS5A ELISA, 72-hour incubation, ranges of EC50, read-out: Replicon

Compound | IC50 (HCV NS5B; [8]) [nM] | EC50 [1, 9] [µM] | further results
2-(2,4-Difluoro-phenyl)-5-isopropoxy-benzofuran-3-carboxylic acid methylamide [Example 91] |  |  | EC50 [1, 2]: < 30 µM; IC50 (HCV NS5B; HCV NS5B RdRp, BB7 genotype 1b): ≤ 500 nM
2-(4-Bromo-phenyl)-5-isopropoxy-benzofuran-3-carboxylic acid methylamide [Example 104] |  |  | EC50 [1, 2]: < 10 µM; IC50 (HCV NS5B; HCV NS5B RdRp, BB7 genotype 1b): ≤ 500 nM
2-(4-Fluoro-phenyl)-5-hydroxy-6-[methanesulfonyl-(2-oxo-propyl)-amino]-benzofuran-3-carboxylic acid methylamide [Example 354] |  |  | EC50 [1, 3]: < 10 µM; IC50 (HCV NS5B; [4]): 500 to 5000 nM
2-(4-Fluoro-phenyl)-5-hydroxy-6-morpholin-4-yl-benzofuran-3-carboxylic acid methylamide [Example 124] |  |  | EC50 [1, 2]: < 10 µM; IC50 (HCV NS5B; HCV NS5B RdRp, BB7 genotype 1b): 500 to 5000 nM
2-(4-Fluoro-phenyl)-5-isopropoxy-6-ureido-benzofuran-3-carboxylic acid methylamide [Example 135] |  |  | EC50 [1, 2]: < 10 µM; IC50 (HCV NS5B; HCV NS5B RdRp, BB7 genotype 1b): ≤ 500 nM
2-(4-Fluoro-phenyl)-5-methoxy-6-(2H-[1,2,4]triazol-3-yl)-benzofuran-3-carboxylic acid methylamide [Example 358] |  |  | EC50 [1, 3]: < 1 µM; IC50 (HCV NS5B; [4]): ≤ 500 nM
2-(4-Fluoro-phenyl)-5-methoxy-6-(5-methyl-[1,3,4]oxadiazol-2-yl)-benzofuran-3-carboxylic acid methylamide [Example 430] |  |  | EC50 [1, 5]: < 10 µM; IC50 (HCV NS5B; [6]): ≤ 500 nM
2-(4-Fluoro-phenyl)-6-(1H-imidazol-2-yl)-5-methoxy-benzofuran-3-carboxylic acid methylamide [Example 296] |  |  | EC50 [1, 3]: < 1 µM; IC50 (HCV NS5B; [7]): ≤ 500 nM
2-(4-Fluoro-phenyl)-6-(1H-imidazol-4-yl)-5-methoxy-benzofuran-3-carboxylic acid methylamide [Example 295] |  |  | EC50 [1, 3]: < 10 µM; IC50 (HCV NS5B; [7]): ≤ 500 nM
4-Chloro-6-[ethyl-(2-methoxy-acetyl)-amino]-2-(4-fluoro-phenyl)-5-methoxy-benzofuran-3-carboxylic acid methylamide [Example 432] |  |  | EC50 [1, 5]: < 10 µM; IC50 (HCV NS5B; [6]): 500 to 5000 nM
5-(3-Cyano-benzyloxy)-2-(4-fluoro-phenyl)-6-(methanesulfonyl-methoxymethyl-amino)-benzofuran-3-carboxylic acid methylamide [Example 447] |  |  | EC50 [1, 3]: < 1 µM; IC50 (HCV NS5B; HCV NS5B RdRp, BB7 (genotype 1b), reported as class symbols): ≤ 500 nM
6-(3-Amino-pyrrolidin-1-yl)-2-(4-fluoro-phenyl)-5-isopropoxy-2,3-dihydro-benzofuran-3-carboxylic acid methylamide [Example 15] | 5000 to 30000 |  | EC50 ([1]; Huh-7-Clone A, NS5A ELISA, 72-hour incubation, ranges of EC50, read-out: Replicon): < 30 µM
CNC(=O)c1c(-c2ccoc2)oc2ccc(OC)cc12 [Example 1, 2-Furan-3-yl-5-methoxy-benzofuran-3-carboxylic acid methylamide] | 500 to 5000 |  | EC50 ([1]; Hepatitis C virus, 72 h, read-out: Replicon (μM)): < 30 µM
CNC(=O)c1c(-c2ccc(F)c(F)c2)oc2ccc(OC)cc12 [Example 3, 2-(3,4-Difluoro-phenyl)-5-methoxy-benzofuran-3-carboxylic acid methylamide] | ≤ 500 | < 10 | 
CNC(=O)c1c(-c2ccc(CNC(C)=O)cc2)oc2ccc(OC(C)C)cc12 [Example 4, 2-[4-(Acetylamino-methyl)-phenyl]-5-isopropoxy-benzofuran-3-carboxylic acid methylamide] | 500 to 5000 | < 30 | 
CNC(=O)c1c(-c2ccc(O)cc2)oc2ccc(OC(C)C)cc12 [Example 5, 2-(4-Hydroxy-phenyl)-5-isopropoxy-benzofuran-3-carboxylic acid methylamide] | 500 to 5000 | < 10 | 
CNC(=O)c1c(-c2ccc(F)cc2)oc2cc(N3CCCC3)c(OC(C)C)cc12 [Example 6, 2-(4-Fluoro-phenyl)-5-isopropoxy-6-pyrrolidin-1-yl-benzofuran-3-carboxylic acid methylamide] | ≤ 500 | < 1 | 
CNC(=O)c1c(-c2ccc(F)cc2)oc2ccc(OC(F)F)cc12 [Example 7, 5-Difluoromethoxy-2-(4-fluoro-phenyl)-benzofuran-3-carboxylic acid methylamide] | 500 to 5000 | < 10 | 
CNC(=O)c1c(-c2ccc(F)cc2)oc2cc(NCCOC)c(OC(C)C)cc12 [Example 8, 2-(4-Fluoro-phenyl)-5-isopropoxy-6-(2-methoxy-ethylamino)-benzofuran-3-carboxylic acid methylamide] | ≤ 500 | < 1 | 
CNC(=O)c1c(-c2ccccc2)oc2ccc(C)cc12 [Example 9, 5-Methyl-2-phenyl-benzofuran-3-carboxylic acid methylamide] | 500 to 5000 | < 10 | 
CNC(=O)c1c(-c2ccc(F)cc2)oc2ccc(C)cc12 [Example 10, 5-Methyl-2-(4-fluoro-phenyl)benzofuran-3-carboxylic acid methylamide] | 500 to 5000 | < 10 | 
CNC(=O)c1c(-c2ccccc2)oc2ccc(OCC(F)(F)F)cc12 [Example 11, 2-Phenyl-5-(2,2,2-trifluoro-ethoxy)-benzofuran-3-carboxylic acid methylamide] | > 30000 | < 30 | 
CNC(=O)c1c(-c2ccc(F)cc2)oc2ccc(OC)cc12 [Example 12, 2-(4-Fluoro-phenyl)-5-methoxy-benzofuran-3-carboxylic acid methylamide] | ≤ 500 | < 10 | 
CNC(=O)c1c(-c2ccc(F)cc2)oc2cc(Br)c(OC)cc12 [Example 13, 6-Bromo-2-(4-fluoro-phenyl)-5-methoxy-benzofuran-3-carboxylic acid methylamide] | ≤ 500 | < 1 | 
CNC(=O)c1c(-c2ccccc2)oc2cc(C)c(OC)cc12 [Example 14, 5-Methoxy-6-methyl-2-phenyl-benzofuran-3-carboxylic acid methylamide] | ≤ 500 | < 1 | 
CNC(=O)c1c(-c2ccc(F)cc2)oc2cc(N)c(OC(C)C)cc12 [Example 16, 6-Amino-2-(4-fluoro-phenyl)-5-isopropoxy-benzofuran-3-carboxylic acid methylamide] | ≤ 500 | < 10 | 
CNC(=O)c1c(-c2ccc(F)cc2)oc2cc(N)c(OC)cc12 [Example 17, 6-Amino-2-(4-fluoro-phenyl)-5-methoxy-benzofuran-3-carboxylic acid methylamide] | 500 to 5000 | < 10 | 
CNC(=O)c1c(-c2ccc(F)cc2)oc2cc(N(C)S(C)(=O)=O)c(OC(C)c3nccs3)cc12 (stereo not shown) [Example 408, 2-(4-Fluoro-phenyl)-6-(methanesulfonyl-methyl-amino)-5-(1-thiazol-2-yl-ethoxy)-benzofuran-3-carboxylic acid methylamide] |  |  | EC50 ([1]; Hepatitis C virus, HCV replicon assay, ranges of 50% effective concentration (EC50), read-out: Replicon): < 1 µM
